The text below walks through data of US20230127944A1, “BROAD-SPECTRUM CARBAPENEMS” (priority 2019, published 2023).

In brackets after ≈: the same amount, converted by molar mass. Where two headings read alike, the source gives them in different places.

Common to all, as to format: cell-based
Experiment [1] concerns S. aureus ATCC 33591 (methicillin-resistant). Put plainly: broth microdilution MIC assay, S. aureus 33591. The conditions noted are these: Staphylococcus aureus. The gist of the method:
(§1)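 CLSI microdilution; MH broth + divalent cations; 5×10^5 CFU/mL; 2-fold series; 37° C, 16-20 h; visual MIC.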

The test system of the next experiment is S. aureus USA 300. As to the kind of experiment: broth microdilution MIC assay, S. aureus USA300. The note with it: Staphylococcus aureus. The gist of the method: as §1
The subject of a further experiment is S. aureus USA 600. As to the kind of experiment: broth microdilution MIC assay, S. aureus USA600. The note with it: Staphylococcus aureus. The gist of the method:
as §1
A general note: Dilution methods test growth across graded concentrations, often in twofold steps.

The test system of experiment [2] is E. coli ATCC 25922 (wild-type/QC strain). As to the kind of experiment: broth microdilution MIC assay, E. coli 25922. The gist of the method: as §1
Experiment [3] relates to P. aeruginosa ATCC 27853 (wild-type/QC strain). Put plainly: broth microdilution MIC assay, P. aeruginosa 27853. In outline: as §1
In experiment [4] the test system is P. aeruginosa 35151 (hyper-permeable strain). As to the kind of experiment: broth microdilution MIC assay, P. aeruginosa 35151. The conditions noted are these: Pseudomonas aeruginosa, read-out: MIC, P. aeruginosa 35151. The gist of the method:
as §1

For experiment [5], the system named is P. aeruginosa ΔmexAB-OprM (an efflux pump knockout). Put plainly: broth microdilution MIC assay, P. aeruginosa ΔmexAB-OprM. The conditions noted are these: Pseudomonas aeruginosa, read-out: MIC, P. aeruginosa ΔmexAB-OprM. In outline:
as §1

The subject of a further experiment is P. aeruginosa Paeβ-17. As to the kind of experiment: broth microdilution MIC assay, P. aeruginosa Paeβ-17. The conditions noted are these: Pseudomonas aeruginosa, read-out: MIC, P. aeruginosa Paeβ-17. The gist of the method:
as §1

For experiment [6], the system named is P. aeruginosa clinical isolates. As to the kind of experiment: expanded MIC profiling, P. aeruginosa clinical isolates. The conditions noted are these: Pseudomonas aeruginosa. As for the experimental part:
(§2) To evaluate the activity of selected example compounds against clinical isolates of target species, standard cell-based broth microdilution MIC assays were employed. A panel of 20 clinical isolates of P. aeruginosa and 20 clinical isolates of Methicillin Resistant S. aureus (MRSA) from Lankenau Medical Center (Wynnewood, Pa.) were used. In the set of P. aeruginosa isolates, the compounds were also tested in combination with a β-lactamase inhibitor (taniborbactam), to evaluate the potential benefit of inhibiting β-lactamase enzymes. The assay was conducted in Cation Adjusted Mueller Hinton Broth (CAMHB, BD #212322, BD Diagnostic Systems, Sparks, Md.). Bacteria strains were grown for 3-5 hours in CAMHB. Compounds were added to a microtiter plate in 2-fold serial dilutions in CAMHB. For plates receiving β-lactamase inhibitor, taniborbactam was added to obtain a final fixed concentration of 4 μg/mL. Once the test articles were added, the plates were inoculated according to CLSI broth microdilution method. After inoculation, the plates were incubated for 16-20 hours at 37° C. then the Minimal Inhibitory Concentration (MIC) of the test compound is determined visually. Values for concentration required to inhibit growth of […] (MIC50) and 90% (MIC90) of isolates were determined.

Experiment [7] has as its system Methicillin Resistant S. aureus (MRSA) clinical isolates. As to the kind of experiment: expanded MIC profiling, MRSA clinical isolates. The note with it: Staphylococcus aureus. As for the experimental part:
as §2

[8] abbreviates: panel of 20 P. aeruginosa clinical isolates.
Setting [9] is: panel of S. aureus (MRSA) isolates of Table 5.
The mark [10] stands for this setting: ATCC33591, S. aureus 33591, methicillin-resistant, read-out: MIC, S. aureus 33591.
Setting [11] is: S. aureus USA300 (MRSA), read-out: MIC, S. aureus USA300.
[12] abbreviates: S. aureus USA600 (MRSA), read-out: MIC, S. aureus USA600.
[13] abbreviates: Escherichia coli, ATCC25922; read-out: MIC, E. coli 25922.
Where [14] appears, read: Pseudomonas aeruginosa, ATCC27853; read-out: MIC, P. aeruginosa 27853.

Usually MIC stands for the smallest concentration in the dilution series that meets the test's criterion for growth inhibition. Take `C[C@@H](O)[C@H]1C(=O)N2C(C(=O)O)=C(S[C@H]3C[C@@H](N4CCC(N)CC4)C3)[C@H](C)[C@H]12` [Example 54]: the MIC in experiment [1] (ATCC33591, read-out: MIC, S. aureus 33591) is 8 to 32 µg/mL (≈ 20.2 to 80.9 µM); in the experiment on S. aureus USA 300 (MRSA / USA300, read-out: MIC, S. aureus USA300) it was 8 to 32 µg/mL (≈ 20.2 to 80.9 µM); with S. aureus USA 600 (MRSA / USA600, read-out: MIC, S. aureus USA600), 1 to 4 µg/mL (≈ 2.53 to 10.1 µM); in [2] (Escherichia coli, ATCC25922, read-out: MIC, E. coli 25922) it was below 1 µg/mL; in experiment [3] (Pseudomonas aeruginosa, ATCC27853, read-out: MIC, P. aeruginosa 27853), 8 to 32 µg/mL (≈ 20.2 to 80.9 µM); in experiment [4], below 1 µg/mL. In addition, the MIC in experiment [5] was in the range of 1 to 4 µg/mL (≈ 2.53 to 10.1 µM); with P. aeruginosa Paeβ-17, 8 to 32 µg/mL (≈ 20.2 to 80.9 µM).
For orientation: MIC50 means an inhibitory concentration at the 50% level, which refers to growth in some studies and to a panel of isolates in others. As usually defined, the MIC90 is an inhibitory concentration at the 90% level, which refers to growth in some studies and to a panel of isolates in others. With `C[C@@H](O)[C@H]1C(=O)N2C(C(=O)O)=C(S[C@@H]3CN[C@H](C(=O)N(C)C)C3)[C@H](C)[C@H]12` [Meropenem, reference compound], the MIC in [6] (P. aeruginosa clinical isolate Lankenau 11) is 1 µg/mL; in [6] (P. aeruginosa clinical isolate Lankenau 12), 0.5 µg/mL; in [6] (P. aeruginosa clinical isolate Lankenau 13), 1 µg/mL; in experiment [6] (P. aeruginosa clinical isolate Lankenau 14), 0.5 µg/mL; in [6] (P. aeruginosa clinical isolate Lankenau 15), 1 µg/mL; in [6] (P. aeruginosa clinical isolate Lankenau 16), 0.5 µg/mL. Besides, the MIC worked out at 1 µg/mL in experiment [6] (P. aeruginosa clinical isolate Lankenau 17); 0.5 µg/mL in experiment [6] (P. aeruginosa clinical isolate Lankenau 18); 1 µg/mL in experiment [6] (P. aeruginosa clinical isolate Lankenau 19); 0.5 µg/mL in [6] (P. aeruginosa clinical isolate Lankenau 20); 1 µg/mL in experiment [6] (P. aeruginosa clinical isolate Lankenau 21); 0.5 µg/mL in experiment [6] (P. aeruginosa clinical isolate Lankenau 22). The MIC in [6] (P. aeruginosa clinical isolate Lankenau 23) was 0.5 µg/mL; in experiment [6] (P. aeruginosa clinical isolate Lankenau 24), 4 µg/mL; in [6] (P. aeruginosa clinical isolate Lankenau 25), 0.5 µg/mL; in [6] (P. aeruginosa clinical isolate Lankenau 26) it was below 0.25 µg/mL; in experiment [6] (P. aeruginosa clinical isolate Lankenau 27), 0.5 µg/mL; in experiment [6] (P. aeruginosa clinical isolate Lankenau 28), 0.5 µg/mL. Moreover, the MIC in experiment [6] (P. aeruginosa clinical isolate Lankenau 29) was 0.5 µg/mL; in experiment [6] (P. aeruginosa clinical isolate Lankenau 30) it was 0.5 µg/mL; in [7] (ATCC 33591 / MRSA, S. aureus ATCC-33591) it was 32 µg/mL; in experiment [7] (MRSA, S. aureus clinical isolate LH-SA3) it was 4 µg/mL; in experiment [7] (MRSA, S. aureus clinical isolate LH-SA9) it was 4 µg/mL; in [7] (MRSA, S. aureus clinical isolate LH-SA23), 4 µg/mL. For the same molecule, the MIC in [7] (MRSA, S. aureus clinical isolate LH-SA24) was 4 µg/mL; in experiment [7] (MRSA, S. aureus clinical isolate LH-SA26), 4 µg/mL; in experiment [7] (MRSA, S. aureus clinical isolate LH-SA29), 16 µg/mL; in [7] (MRSA, S. aureus clinical isolate LH-SA33), 4 µg/mL; in experiment [7] (MRSA, S. aureus clinical isolate LH-SA34), 8 µg/mL; in experiment [7] (MRSA, S. aureus clinical isolate LH-SA37), 4 µg/mL. For the same molecule, the minimum inhibitory concentration (MIC) in experiment [7] (MRSA, S. aureus clinical isolate LH-SA38) came out at 32 µg/mL; in experiment [7] (MRSA, S. aureus clinical isolate LH-SA39), 4 µg/mL; in experiment [7] (MRSA, S. aureus clinical isolate LH-SA40) it was 4 µg/mL; in [7] (MRSA, S. aureus clinical isolate LH-SA41) it was 4 µg/mL; in [7] (MRSA, S. aureus clinical isolate LH-SA42), 8 µg/mL; in [7] (MRSA, S. aureus clinical isolate LH-SA44), 8 µg/mL. In addition, the MIC was determined as 16 µg/mL in [7] (MRSA, S. aureus clinical isolate LH-SA45); 4 µg/mL in [7] (MRSA, S. aureus clinical isolate LH-SA48); 4 µg/mL in experiment [7] (MRSA, S. aureus clinical isolate LH-SA49); 4 µg/mL in experiment [7] (MRSA, S. aureus clinical isolate LH-SA50). The values for the MIC50 in [6] (setting [8]) and in experiment [7] (setting [9]) were 0.5 µg/mL and 4 µg/mL, respectively. Further, the MIC90 worked out at 1 µg/mL in experiment [6] (setting [8]) and 16 µg/mL in experiment [7] (setting [9]).
Turning to `C[C@@H](O)[C@H]1C(=O)N2C(C(=O)O)=C(S[C@H]3C[C@H](N[C@@H]4CC[C@@H](N)C4)C3)[C@H](C)[C@H]12` [Example 71, (4R,5S,6S)-3-(((1R,3R)-3-(((1R,3R)-3-aminocyclopentyl)amino)cyclobutyl)thio)-6-((R)-1-hydroxyethyl)-4-methyl-7-oxo-1-azabicyclo[3.2.0]hept-2-ene-2-carboxylic acid], the MIC in experiment [1] (setting [10]) is 8 to 32 µg/mL (≈ 20.2 to 80.9 µM); in the experiment on S. aureus USA 300 (setting [11]) it was 1 to 4 µg/mL (≈ 2.53 to 10.1 µM); in the experiment on S. aureus USA 600 (setting [12]), 1 to 4 µg/mL (≈ 2.53 to 10.1 µM); in experiment [2] (setting [13]), below 1 µg/mL; in experiment [3] (setting [14]), 8 to 32 µg/mL (≈ 20.2 to 80.9 µM); in experiment [4] it was below 1 µg/mL. Further, the minimal inhibitory concentration (MIC) in experiment [5] lay in the range of 1 to 4 µg/mL (≈ 2.53 to 10.1 µM); in the experiment with P. aeruginosa Paeβ-17 it was 8 to 32 µg/mL (≈ 20.2 to 80.9 µM).
On to `C[C@@H](O)[C@H]1C(=O)N2C(C(=O)O)=C(S[C@H]3C[C@@H](N[C@H]4CC[C@@H](NC(=N)N)CC4)C3)[C@H](C)[C@H]12` [Example 51, (4R,5S,6S)-3-(((1S,3S)-3-(((1S,4R)-4-guanidinocyclohexyl)amino)cyclobutyl)thio)-6-((R)-1-hydroxyethyl)-4-methyl-7-oxo-1-azabicyclo[3.2.0]hept-2-ene-2-carboxylic acid], for which the MIC was 1 to 4 µg/mL (≈ 2.21 to 8.86 µM) in experiment [1] (setting [10]); below 1 µg/mL in the experiment with S. aureus USA 300 (setting [11]); 1 to 4 µg/mL (≈ 2.21 to 8.86 µM) in the experiment with S. aureus USA 600 (setting [12]); below 1 µg/mL in experiment [2] (setting [13]); 1 to 4 µg/mL (≈ 2.21 to 8.86 µM) in experiment [3] (setting [14]); below 1 µg/mL in experiment [4]. Moreover, the MIC in experiment [5] is 1 to 4 µg/mL (≈ 2.21 to 8.86 µM); in the experiment with P. aeruginosa Paeβ-17 it was 8 to 32 µg/mL (≈ 17.7 to 70.9 µM).
On to `C[C@@H](O)[C@H]1C(=O)N2C(C(=O)O)=C(S[C@H]3C[C@@H](N[C@@H]4CC[C@@H](N)C4)C3)[C@H](C)[C@H]12` [Example 78, (4R,5S,6S)-3-(((1S,3S)-3-(((1R,3R)-3-aminocyclopentyl)amino)cyclobutyl)thio)-6-((R)-1-hydroxyethyl)-4-methyl-7-oxo-1-azabicyclo[3.2.0]hept-2-ene-2-carboxylic acid], for which the MIC in experiment [1] (setting [10]) was 8 to 32 µg/mL (≈ 20.2 to 80.9 µM); in the experiment on S. aureus USA 300 (setting [11]), 1 to 4 µg/mL (≈ 2.53 to 10.1 µM); in the experiment with S. aureus USA 600 (setting [12]), 1 to 4 µg/mL (≈ 2.53 to 10.1 µM); in experiment [2] (setting [13]), below 1 µg/mL; in experiment [3] (setting [14]), 1 to 4 µg/mL (≈ 2.53 to 10.1 µM); in [4], below 1 µg/mL. In addition, the MIC in [5] fell in the range of 8 to 32 µg/mL (≈ 20.2 to 80.9 µM); with P. aeruginosa Paeβ-17, 1 to 4 µg/mL (≈ 2.53 to 10.1 µM).
